Series [1] has as its system certain human breast cancer cell lines. Conditions: WO 95/06469; cited from earlier work.
A short description of series [2]: Stability in plasma in vitro. The class given is in vitro ADME, rat. Conditions: rat, plasma.
The conditions of series [3]: rat, in vivo, iv, 25 mg/kg.
The test system of a further series is MDA468. In words: In vitro cytotoxicity, 3-day MTT assay, MDA468. The class given is cell-based. Conditions: n=8. The protocol:
(§1) In carrying out the following cytoloxicity assays, the method used corresponds substantially to the following example: • Cells were maintained in a continuous logarithmic culture in RMPI 1640 with L-glutamine medium, supplemented with 10% fetal calf serum, penicillin (100 IU/ml) and streptomycin (100 μg/ml). The cells were mildly trypsinized for passage and for use in assays. • On day one, 180 μl of trypsinized tumour cells (5×10^3 ml^−1) were placed in the wells of 96-well, flat-bottom microtiter plates. Columns 1 and 12 were filled with 300 μl medium to protect from evaporation. The plates were incubated for 24 hours at 37° C. and 5% CO2 in air to allow the cells to adhere and resume exponential growth prior to the addition of drugs. The compounds being tested were dissolved in DMSO and stored as 10 mM stock solutions at 4° C., protected from light. […] 20 μl of drug dilution was added to the other wells with the lowest concentration in column 3 and the highest concentration in column 11. The plates were incubated for 72 hours at 37° C. and 5% CO2 in air. Each compound was tested in triplicate. At the time of drug addition, a plate of untreated cells was read to provide an initial optical density value for use in the calculation of the IC50. • On day five the plates were read. 50 μl MTT (1 mg/ml^−1) was added per well and the plates incubated for a further 4 hours. The MTT is metaboliscd to form a blue formazan product. The MTT solution was aspirattd and 125 μl DMSO:glycine buffer (4:1) was added. The plates were placed on a plate shaker until the fornazan crystals had dissolved and absorbance was ready at 550 nm on a plate reader. • For each compound tested, a dose response curve was obtained and the IC50 statue (drug concentration at 50% inhibition of cell growth) was calculated.
(§2) (n=8) for a range of compounds in relation to MCF-7 and MDA 468 cell lines.
On the technique in general: Tetrazolium dyes change colour on reduction, which living cells bring about.

For the next series, the system named is MCF-7 cells. In words: Conversion of prodrug to parent in culture of MCF-7 cells. Format: cell-based.
The next series has as its system MCF-7. In words: In vitro cytotoxicity, 3-day MTT assay, MCF-7. Format: cell-based, human. Conditions: 3-day MTT assay, n=8. On the procedure: as §1, §2
The next series deals with sensitive cell lines. The experiment in a line: Biphasic dose-response relationship (second growth phase) in sensitive cell lines. Format: cell-based. The source says:
One feature of the prior art compounds is that they show a biphasic dose-response relationship specifically in sensitive cell lines: cell kill occurs at low nanomolar concentrations of the compounds, followed by a potentially undesirable proliferative response at low micromolar concentrations (termed the “second growth phase”).

Series [4] deals with ER positive MCF-7 human breast tumor xenografts. The conditions noted are these: for growth inhibition of MCF-7 xenografts: given i.p.
The subject of the next series is COLO205 xenografts. The experiment in a line: In vivo COLO205 xenograft study (FIG. 2).
Series [5] relates to ER negative MT-1 human breast tumor xenografts. Conditions: for tumor growth inhibition in MT-1 xenografts / weight loss in MT-1 xenograft study: dose dependence.
Series [6] is described as follows: Blood parameters and liver transaminases in xenograft studies. The conditions noted are these: mouse, in vivo. Also noted: species or system nude mice.
A short description of series [7]: Plasma concentrations after administration to mice. Format: in vivo. The conditions noted are these: mouse, 70 μmol/kg, read-out: Geometric Mean Plasma Concentration.
For series [8], the system named is cell lines that relate to a range of various mammalian cancers other than human breast cancer. The conditions noted are these: WO 96/26932; cited from earlier work.

Some results are limits rather than exact numbers.

Take `Nc1ccc(-c2nc3ccccc3s2)cc1` [CJM 126, 2-(4′-aminophenyl)benzothiazole]: in series [1], the “specific inhibitory activity in human breast cancer cell lines” value is “remarkably high specific inhibitory activity”.
Usually IC50 stands for the concentration that gives 50% inhibition. A lower IC50 goes with greater potency in that assay. Regarding `Cc1cc(-c2nc3cc(F)ccc3s2)ccc1NC(=O)C(N)CCCCN.Cl.Cl` (centres unmarked) [Compound Iad, 5-Fluoro-2-(4′-amino-3′-methylphenyl)benzothiazole Lysyl Amide Dihydrochloride Salt], the “stability in plasma in vitro” value in [2] is “stable”. For the same compound, in series [3], the “removal from plasma and reconversion to parent compound in vivo” value was “readily removed from such plasma and reconverted to their parent compound in vivo”. Also, the results for the IC50 with MDA468 and in the series on MCF-7 were 158 nM and 40 nM, respectively. In addition, the “concentration of parent compound 5F203 after addition of prodrug to MCF-7 culture” value in the series with MCF-7 cells is on record as “progressive increase in concentration of the parent compound 5F203”.
Compound `Cc1cc(-c2nc3cc(F)ccc3s2)ccc1N` [Compound Ik, 5-Fluoro-2-(4′-amino-3′-methylphenyl)benzothiazole] had an IC50 with MDA468 (72 h) below 0.1 nM. Further, the “biphasic dose-response (second growth phase)” value in the series on sensitive cell lines is “the biphasic response is eliminated”. Also, the IC50 with MCF-7 (Homo sapiens, MCF7, 72 h) was below 0.1 nM. In series [4] (12.5 mg/kg, i.p.), the “toxicity in MCF-7 xenograft study” value is “toxic”. In series [4], the “tumour growth inhibition, MCF7 xenografts (FIG. 1)” value was “Tumour growth inhibition observed” and the “growth inhibition of MCF-7 xenografts” value is reported as “Significant growth inhibition”. Besides, the “tumour growth inhibition, COLO205 xenografts (FIG. 2)” value in the series with COLO205 xenografts was “tumour growth inhibition observed”. Moreover, in [5] (25 mg/kg, parent compounds), the “toxicity in MT-1 xenograft study” value is recorded as “toxic”. Further, in series [5], the “tumor growth inhibition in MT-1 xenografts” value is recorded as “dose-dependent tumor growth inhibition” and the “weight loss in MT-1 xenograft study” value was “weight loss”. Moreover, the “blood parameters (white blood cell and platelet counts) and level of liver transaminases” value in series [6] is on record as “not adversely affected”. Besides, the concentration at 3.5 min in series [7] (mean sample time 3.5 min) stood at 1180 nM. The concentration at 6.5 min in series [7] (mean sample time 6.5 min) is 1530 nM. Also, the concentration at 9.5 min in [7] (mean sample time 9.5 min) amounted to 1840 nM. The concentration at 12.5 min in series [7] (mean sample time 12.5 min) came out at 2270 nM. Besides, the concentration at 15.5 min in series [7] (mean sample time 15.5 min) stood at 3270 nM. Further, the concentration at 20.8 min in [7] (mean sample time 20.8 min) was determined as 2680 nM. The concentration at 30.5 min in [7] (mean sample time 30.5 min) came to 3770 nM. For the same compound, the concentration at 45.4 min in series [7] (mean sample time 45.4 min) is 3410 nM. Further, the concentration at 60.5 min in series [7] (mean sample time 60.5 min) came out at 4110 nM. In series [7] (mean sample time 90.6 min), the concentration at 90.6 min stood at 3520 nM. Besides, the concentration at 120.5 min in series [7] (mean sample time 120.5 min) amounted to 2630 nM. Also, the concentration at 240 min in [7] (mean sample time 240.0 min) was found to be 1000 nM. In [7] (mean sample time 360.0 min), the concentration at 360 min was found to be 590 nM.
As for `Cc1cc(-c2nc3ccccc3s2)ccc1N` [DF203, 2-(4′-amino-3′-methylphenyl)benzothiazole, reference compound], the “anti-proliferative activity in cell lines of cancers other than human breast cancer” value in series [8] is “exhibit anti-proliferative activity selectively”. Further, the “tumour growth inhibition, MCF7 xenografts (FIG. 1)” value in series [4] is on record as “Tumour growth inhibition observed”.
In turn, `Cc1cc(-c2nc3ccc(F)cc3s2)ccc1N` [Ib, 6-Fluoro-2-(4′-amino-3′-methylphenyl)benzothiazole] showed an IC50 in the series on MDA468 (72 h) of 0.11 nM. Also, the “biphasic dose-response (second growth phase)” value with sensitive cell lines is listed as “the biphasic response is eliminated”. In the series on MCF-7 (Homo sapiens, MCF7, 72 h), this compound came in with an IC50 below 0.1 nM. Further, in series [4], the “growth inhibition of MCF-7 xenografts” value is “Significant growth inhibition”. Also, in the series with COLO205 xenografts, the “tumour growth inhibition, COLO205 xenografts (FIG. 2)” value was “tumour growth inhibition observed”. In [5] (12.5 mg/kg), the “growth inhibition of MT-1 xenografts compared with same dose of (Ik)” value is listed as “more pronounced growth inhibition”. Moreover, in series [5], the “tumor growth inhibition in MT-1 xenografts” value was “dose-dependent tumor growth inhibition” and the “weight loss in MT-1 xenograft study” value was “weight loss”. The “blood parameters (white blood cell and platelet counts) and level of liver transaminases” value in series [6] is on record as “not adversely affected”.

The values are drawn from patent publication US6858633B1, “Substituted 2-arylbenzazole compounds and their use as antitumour agents” (Cancer Research Technology Limited, priority 1999, dated 2005).
